Experimental data reported in ChEMBL document CHEMBL3352288, “Synthesis and biological evaluation of 9α- and 9β-hydroxyamino-parthenolides as novel anticancer agents” (Bioorg Med Chem Lett, 2014).

How the values were obtained:
Format in all cases: functional, cell-based
[1] = system: Hs 683; assay: Anticancer activity against human Hs 683 cells assessed as growth inhibition after 72 hrs by MTT colorimetric assay; conditions: Hs 683, 72 h
[2] = system: MCF7; assay: Anticancer activity against human MCF7 cells assessed as growth inhibition after 72 hrs by MTT assay; conditions: MCF7, 72 h
[3] = Anticancer activity against mouse B16F10 cells assessed as growth inhibition after 72 hrs by MTT colorimetric assay; conditions: B16-F10, 72 h
[4] = system: SK-MEL-28; assay: Anticancer activity against human SK-MEL-28 cells assessed as growth inhibition after 72 hrs by MTT assay; conditions: SK-MEL-28, 72 h
[5] = Anticancer activity against human Glioma cells assessed as growth inhibition after 72 hrs by MTT assay
[6] = system: A549; assay: Anticancer activity against human A549 cells assessed as growth inhibition after 72 hrs by MTT colorimetric assay; conditions: A549, 72 h
[7] = system: T98G; assay: Anticancer activity against human T98G cells assessed as growth inhibition after 72 hrs by MTT assay

SMILES	IC50 [2] [µM]	IC50 [4] [µM]	IC50 [6] [µM]	IC50 [1] [µM]	IC50 [3] [µM]	IC50 [5] [µM]	IC50 [7] [µM]
C/C1=C\CC[C@@]2(C)O[C@@H]2[C@H]2OC(=O)[C@@H](CN3CCN(C)CC3)[C@@H]2C[C@H]1O	33	57	30	33	25	36	
C/C1=C\CC[C@@]2(C)O[C@@H]2[C@H]2OC(=O)[C@@H](CN3CCN(c4ccccc4F)CC3)[C@@H]2C[C@H]1O	24	25	22	25	6	6	
COc1ccc(N2CCN(C[C@@H]3C(=O)O[C@H]4[C@H]3C[C@@H](O)/C(C)=C/CC[C@@]3(C)O[C@H]43)CC2)cc1	24	25	26	22	14	18	
C[C@]12O[C@@H]1CC[C@@]1(C)O[C@@H]1[C@H]1OC(=O)[C@@H](CN3CCCCC3)[C@@H]1C[C@H]2O	74	84	90	67	46	59	
C[C@]12O[C@@H]1CC[C@@]1(C)O[C@@H]1[C@H]1OC(=O)[C@@H](CN3CCOCC3)[C@@H]1C[C@H]2O	24	22	23	24	9	12	
C[C@]12O[C@@H]1CC[C@@]1(C)O[C@@H]1[C@H]1OC(=O)[C@@H](CN3CCN(c4ccccc4)CC3)[C@@H]1C[C@H]2O	59	51	48	31	22	35	
C[C@]12O[C@@H]1CC[C@@]1(C)O[C@@H]1[C@H]1OC(=O)[C@@H](CN3CCN(c4ccc(Cl)cc4)CC3)[C@@H]1C[C@H]2O	29	31	28		19		16

Now from value to compound, other results behind:

IC50 [2] [µM]	IC50 [4] [µM]	IC50 [6] [µM]	SMILES	IC50 [1] [µM]	IC50 [3] [µM]	IC50 [5] [µM]	IC50 [7] [µM]
21	19	10	C/C1=C\CC[C@@]2(C)O[C@@H]2[C@H]2OC(=O)[C@@H](CN3CCCC3)[C@@H]2C[C@H]1O	15	4	5	
16	16	18	C/C1=C\CC[C@@]2(C)O[C@@H]2[C@H]2OC(=O)[C@@H](CN3CCCCC3)[C@@H]2C[C@H]1O	7	4	4	
14	19	8	C/C1=C\CC[C@@]2(C)O[C@@H]2[C@H]2OC(=O)[C@@H](CN(C)CCN(C)C)[C@@H]2C[C@H]1O	9	4	16	
24	22	25	C/C1=C\CC[C@@]2(C)O[C@@H]2[C@H]2OC(=O)[C@@H](CN3CCOCC3)[C@@H]2C[C@H]1O	22	5	5	
19	19	17	C/C1=C\CC[C@@]2(C)O[C@@H]2[C@H]2OC(=O)[C@@H](CN3CCN(c4ccccc4)CC3)[C@@H]2C[C@H]1O	22	6	5	
18	23	9	C/C1=C\CC[C@@]2(C)O[C@@H]2[C@H]2OC(=O)[C@@H](CN3CCCC3)[C@@H]2C[C@@H]1O	10	7		15
8	10	6	C/C1=C\CC[C@@]2(C)O[C@@H]2[C@H]2OC(=O)[C@@H](CN3CCCCC3)[C@@H]2C[C@@H]1O	7	6		17
22	23	25	C/C1=C\CC[C@@]2(C)O[C@@H]2[C@H]2OC(=O)[C@@H](CN3CCN(C)CC3)[C@@H]2C[C@@H]1O	22	9		23
20	17	22	C[C@]12O[C@@H]1CC[C@@]1(C)O[C@@H]1[C@H]1OC(=O)[C@@H](CN3CCN(c4ccccc4F)CC3)[C@@H]1C[C@H]2O	18	5	8	
23	25	24	C=C1C(=O)O[C@H]2[C@H]1C[C@H](O)/C(C)=C/CC[C@@]1(C)O[C@@H]21	25	15		25
6	9	7	C=C1C(=O)O[C@H]2[C@H]1C[C@@H](O)/C(C)=C/CC[C@@]1(C)O[C@@H]21	7	4		11
